Assay results taken from ChEMBL document CHEMBL3991601, “The target landscape of clinical kinase drugs” (Science, 2017).
Activity calls are given as the source filed them.

Assays:
[1] = biological target: PAS domain-containing serine/threonine-protein kinase (Homo sapiens, UniProt Q96RG2)
[2] = biological target: Serine/threonine-protein kinase 24 (Homo sapiens, UniProt Q9Y6E0)
[3] = biological target: Tyrosine-protein kinase Lck (Homo sapiens, UniProt P06239)
[4] = biological target: T1, Thyroid hormone receptor-associated protein 3 (Homo sapiens, UniProt Q9Y2W1)
T1 sequence (Q9Y2W1 whole entry): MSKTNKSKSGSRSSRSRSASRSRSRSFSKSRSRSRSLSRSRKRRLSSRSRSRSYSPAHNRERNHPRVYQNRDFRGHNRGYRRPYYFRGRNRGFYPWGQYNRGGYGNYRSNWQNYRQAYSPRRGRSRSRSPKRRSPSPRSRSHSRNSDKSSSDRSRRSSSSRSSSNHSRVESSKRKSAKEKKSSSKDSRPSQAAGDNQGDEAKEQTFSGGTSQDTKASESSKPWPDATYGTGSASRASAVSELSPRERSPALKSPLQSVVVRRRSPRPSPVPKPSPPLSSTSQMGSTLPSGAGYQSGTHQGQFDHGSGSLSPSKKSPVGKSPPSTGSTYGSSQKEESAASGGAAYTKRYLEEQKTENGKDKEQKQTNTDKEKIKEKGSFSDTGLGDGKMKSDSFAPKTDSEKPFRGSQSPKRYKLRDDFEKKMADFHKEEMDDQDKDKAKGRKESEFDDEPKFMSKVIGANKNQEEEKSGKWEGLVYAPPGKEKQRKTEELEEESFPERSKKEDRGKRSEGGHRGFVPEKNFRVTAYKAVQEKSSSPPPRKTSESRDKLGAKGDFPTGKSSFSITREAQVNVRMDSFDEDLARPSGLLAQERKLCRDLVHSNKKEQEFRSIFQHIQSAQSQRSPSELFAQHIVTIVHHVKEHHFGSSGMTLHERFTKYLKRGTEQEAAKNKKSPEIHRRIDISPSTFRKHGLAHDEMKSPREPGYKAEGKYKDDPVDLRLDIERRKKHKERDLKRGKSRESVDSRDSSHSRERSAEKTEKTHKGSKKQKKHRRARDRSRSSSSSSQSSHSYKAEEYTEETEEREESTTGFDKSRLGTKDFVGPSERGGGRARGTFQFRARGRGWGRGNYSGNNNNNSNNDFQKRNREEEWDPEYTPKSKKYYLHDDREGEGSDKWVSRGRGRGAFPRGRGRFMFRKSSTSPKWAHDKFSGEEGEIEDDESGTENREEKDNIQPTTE

Ephrin type-A receptor 1 = biological target: T2, Ephrin type-A receptor 1 (Homo sapiens, UniProt P21709)
T2 sequence (P21709 whole entry): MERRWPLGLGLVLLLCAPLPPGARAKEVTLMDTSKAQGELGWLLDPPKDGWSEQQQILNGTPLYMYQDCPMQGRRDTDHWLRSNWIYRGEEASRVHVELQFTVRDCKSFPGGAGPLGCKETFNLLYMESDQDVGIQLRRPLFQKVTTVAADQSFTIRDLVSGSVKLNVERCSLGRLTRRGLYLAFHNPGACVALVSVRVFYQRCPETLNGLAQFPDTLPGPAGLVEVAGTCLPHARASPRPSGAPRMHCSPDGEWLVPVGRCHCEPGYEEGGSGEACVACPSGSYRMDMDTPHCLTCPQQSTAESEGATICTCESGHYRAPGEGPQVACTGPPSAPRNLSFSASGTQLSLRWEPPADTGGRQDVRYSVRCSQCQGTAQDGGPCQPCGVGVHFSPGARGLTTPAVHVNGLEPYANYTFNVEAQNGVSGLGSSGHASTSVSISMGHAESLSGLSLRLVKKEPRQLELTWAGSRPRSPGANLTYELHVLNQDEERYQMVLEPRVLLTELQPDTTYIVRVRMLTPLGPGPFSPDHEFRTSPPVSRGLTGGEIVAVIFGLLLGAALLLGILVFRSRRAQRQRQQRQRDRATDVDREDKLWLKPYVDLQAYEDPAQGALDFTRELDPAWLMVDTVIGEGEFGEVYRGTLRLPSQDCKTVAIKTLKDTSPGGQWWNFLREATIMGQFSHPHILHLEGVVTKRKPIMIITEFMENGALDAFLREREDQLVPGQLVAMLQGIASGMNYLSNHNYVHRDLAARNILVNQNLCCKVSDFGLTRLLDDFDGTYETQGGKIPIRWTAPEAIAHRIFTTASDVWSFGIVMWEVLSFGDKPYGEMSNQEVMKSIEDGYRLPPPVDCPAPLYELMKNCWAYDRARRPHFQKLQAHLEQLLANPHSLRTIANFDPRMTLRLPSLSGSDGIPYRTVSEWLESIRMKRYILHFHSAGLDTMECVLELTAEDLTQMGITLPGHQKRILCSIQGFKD

Misshapen-like kinase 1 = Misshapen-like kinase 1 (Homo sapiens, UniProt Q8N4C8)

Measured: Kd
Also: in the data inactive means no Kd found up to 30 µM.

Sequence of Tyrosine-protein kinase Lck (P06239 whole entry): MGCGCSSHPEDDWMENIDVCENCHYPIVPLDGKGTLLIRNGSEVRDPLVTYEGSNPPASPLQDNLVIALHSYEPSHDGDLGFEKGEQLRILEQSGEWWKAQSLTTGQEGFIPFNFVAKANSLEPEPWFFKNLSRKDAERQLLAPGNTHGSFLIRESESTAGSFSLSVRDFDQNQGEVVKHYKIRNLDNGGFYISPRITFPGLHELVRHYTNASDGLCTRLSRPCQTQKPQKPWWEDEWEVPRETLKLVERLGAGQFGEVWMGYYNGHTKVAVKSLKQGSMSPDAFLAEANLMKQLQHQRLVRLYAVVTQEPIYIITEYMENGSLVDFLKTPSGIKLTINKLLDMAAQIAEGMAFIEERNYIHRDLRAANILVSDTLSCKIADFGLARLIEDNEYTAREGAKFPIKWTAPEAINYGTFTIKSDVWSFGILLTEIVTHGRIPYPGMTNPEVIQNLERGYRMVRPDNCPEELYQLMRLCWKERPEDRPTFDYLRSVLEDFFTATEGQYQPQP
Sequence of PAS domain-containing serine/threonine-protein kinase (Q96RG2 whole entry, the tested form may be a part): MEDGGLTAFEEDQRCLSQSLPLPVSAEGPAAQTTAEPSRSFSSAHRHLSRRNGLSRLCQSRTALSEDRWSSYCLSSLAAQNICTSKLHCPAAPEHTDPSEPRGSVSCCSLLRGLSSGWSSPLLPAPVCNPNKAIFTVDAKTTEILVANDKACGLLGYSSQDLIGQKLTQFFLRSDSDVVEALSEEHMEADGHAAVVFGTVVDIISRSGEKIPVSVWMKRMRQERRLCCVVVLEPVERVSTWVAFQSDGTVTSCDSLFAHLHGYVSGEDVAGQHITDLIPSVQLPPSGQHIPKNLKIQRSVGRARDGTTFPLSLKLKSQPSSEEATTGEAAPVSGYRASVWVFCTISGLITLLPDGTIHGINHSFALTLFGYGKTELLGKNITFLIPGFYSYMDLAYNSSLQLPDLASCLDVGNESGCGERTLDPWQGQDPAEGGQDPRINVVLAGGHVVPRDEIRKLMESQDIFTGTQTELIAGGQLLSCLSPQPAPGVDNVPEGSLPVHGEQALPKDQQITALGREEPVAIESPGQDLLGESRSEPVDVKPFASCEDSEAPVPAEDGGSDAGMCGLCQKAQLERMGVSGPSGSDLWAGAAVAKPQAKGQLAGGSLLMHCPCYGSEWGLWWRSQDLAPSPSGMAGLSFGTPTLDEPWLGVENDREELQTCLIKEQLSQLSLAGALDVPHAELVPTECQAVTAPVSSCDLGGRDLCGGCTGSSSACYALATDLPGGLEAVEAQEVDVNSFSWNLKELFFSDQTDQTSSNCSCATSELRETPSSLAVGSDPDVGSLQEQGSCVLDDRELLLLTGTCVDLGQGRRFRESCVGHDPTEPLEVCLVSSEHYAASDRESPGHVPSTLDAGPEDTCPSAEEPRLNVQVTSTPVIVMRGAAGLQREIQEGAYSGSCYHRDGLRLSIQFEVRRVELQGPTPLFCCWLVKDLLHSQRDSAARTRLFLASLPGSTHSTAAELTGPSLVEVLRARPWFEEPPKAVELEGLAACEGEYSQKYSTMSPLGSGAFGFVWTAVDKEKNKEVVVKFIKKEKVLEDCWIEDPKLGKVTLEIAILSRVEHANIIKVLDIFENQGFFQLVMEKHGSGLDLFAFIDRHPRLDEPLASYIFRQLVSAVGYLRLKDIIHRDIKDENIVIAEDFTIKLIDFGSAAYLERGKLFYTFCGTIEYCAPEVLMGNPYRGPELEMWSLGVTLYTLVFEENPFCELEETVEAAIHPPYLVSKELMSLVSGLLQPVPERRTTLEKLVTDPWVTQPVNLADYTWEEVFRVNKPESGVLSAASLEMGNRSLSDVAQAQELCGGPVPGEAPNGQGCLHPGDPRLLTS
Sequence of Serine/threonine-protein kinase 24 (Q9Y6E0 whole entry): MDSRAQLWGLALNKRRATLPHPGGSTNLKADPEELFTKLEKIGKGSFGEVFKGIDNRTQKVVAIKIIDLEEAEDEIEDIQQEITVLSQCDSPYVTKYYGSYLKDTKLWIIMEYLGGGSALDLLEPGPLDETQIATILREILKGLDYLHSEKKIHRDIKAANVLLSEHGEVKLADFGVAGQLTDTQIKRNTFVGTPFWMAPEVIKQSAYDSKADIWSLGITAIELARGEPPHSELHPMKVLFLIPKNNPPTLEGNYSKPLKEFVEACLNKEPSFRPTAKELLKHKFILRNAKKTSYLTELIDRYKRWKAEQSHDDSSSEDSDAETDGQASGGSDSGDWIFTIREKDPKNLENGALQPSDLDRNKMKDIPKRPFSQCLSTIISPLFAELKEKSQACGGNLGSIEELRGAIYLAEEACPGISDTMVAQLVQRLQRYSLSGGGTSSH
Sequence of Misshapen-like kinase 1 (Q8N4C8 whole entry): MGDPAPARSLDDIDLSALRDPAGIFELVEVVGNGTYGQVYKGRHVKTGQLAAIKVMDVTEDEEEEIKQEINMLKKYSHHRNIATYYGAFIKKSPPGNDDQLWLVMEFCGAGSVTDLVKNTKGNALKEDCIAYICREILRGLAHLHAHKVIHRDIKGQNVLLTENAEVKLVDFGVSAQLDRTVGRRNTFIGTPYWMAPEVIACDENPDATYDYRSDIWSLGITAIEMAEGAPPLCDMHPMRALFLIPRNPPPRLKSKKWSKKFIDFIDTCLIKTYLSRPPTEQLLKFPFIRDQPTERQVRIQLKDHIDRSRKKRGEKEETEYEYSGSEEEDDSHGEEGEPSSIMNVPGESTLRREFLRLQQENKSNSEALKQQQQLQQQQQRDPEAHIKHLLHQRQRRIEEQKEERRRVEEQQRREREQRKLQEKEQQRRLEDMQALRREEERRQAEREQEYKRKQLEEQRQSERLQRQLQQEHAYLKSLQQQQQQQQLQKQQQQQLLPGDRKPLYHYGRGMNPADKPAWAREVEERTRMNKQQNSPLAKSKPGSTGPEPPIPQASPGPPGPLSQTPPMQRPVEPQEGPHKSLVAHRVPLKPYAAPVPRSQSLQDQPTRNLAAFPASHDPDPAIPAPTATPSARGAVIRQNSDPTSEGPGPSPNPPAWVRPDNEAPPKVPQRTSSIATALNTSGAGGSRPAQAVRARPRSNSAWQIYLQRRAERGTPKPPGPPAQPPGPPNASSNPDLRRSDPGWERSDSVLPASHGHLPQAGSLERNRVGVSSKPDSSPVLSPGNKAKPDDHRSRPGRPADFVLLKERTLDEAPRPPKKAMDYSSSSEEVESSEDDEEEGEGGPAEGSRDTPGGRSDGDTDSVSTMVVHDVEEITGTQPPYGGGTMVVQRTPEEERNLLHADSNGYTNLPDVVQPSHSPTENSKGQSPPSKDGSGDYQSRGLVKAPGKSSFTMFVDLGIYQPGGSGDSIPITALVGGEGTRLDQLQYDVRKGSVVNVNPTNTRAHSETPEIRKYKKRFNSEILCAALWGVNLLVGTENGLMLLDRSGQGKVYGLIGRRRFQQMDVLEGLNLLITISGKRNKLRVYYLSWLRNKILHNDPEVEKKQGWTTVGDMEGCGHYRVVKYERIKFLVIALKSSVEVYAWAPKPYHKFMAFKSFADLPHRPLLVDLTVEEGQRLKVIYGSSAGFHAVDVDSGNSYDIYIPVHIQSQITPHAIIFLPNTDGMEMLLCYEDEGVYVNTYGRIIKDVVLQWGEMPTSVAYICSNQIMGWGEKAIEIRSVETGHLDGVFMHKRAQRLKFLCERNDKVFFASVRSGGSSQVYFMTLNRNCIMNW

Cc1ccc(C(=O)Nc2ccc(Oc3cc4cnn(C)c4cc3-c3cn[nH]c3)c(F)c2)c(=O)n1-c1ccc(F)cc1 [MERESTINIB]
inactive: [1] > 30 µM | [2] > 30 µM | [3] > 30 µM | [4] > 30 µM | Ephrin type-A receptor 1 > 30 µM | Misshapen-like kinase 1 > 30 µM

C#Cc1cccc(Nc2ncnc3cc4c(cc23)OCCOCCOCCO4)c1 [ICOTINIB]
inactive: [1] > 30 µM | [2] > 30 µM | [3] > 30 µM | [4] > 30 µM | Ephrin type-A receptor 1 > 30 µM | Misshapen-like kinase 1 > 30 µM

O[C@H]1CC[C@H](Nc2ncc3nc(Nc4c(F)cc(F)cc4F)n([C@H]4CCOC4)c3n2)CC1 [TANZISERTIB]
inactive: [1] > 30 µM | [2] > 30 µM | [3] > 30 µM | [4] > 30 µM | Ephrin type-A receptor 1 > 30 µM | Misshapen-like kinase 1 > 30 µM

C[C@@H]1COC(Nc2ccc3ncnc(Nc4ccc(OCc5nccs5)c(Cl)c4)c3c2)=N1 [VARLITINIB]
inactive: [1] > 30 µM | [2] > 30 µM | [3] > 30 µM | [4] > 30 µM | Ephrin type-A receptor 1 > 30 µM | Misshapen-like kinase 1 > 30 µM

O=C(NOC[C@H](O)CO)c1ccc(F)c(F)c1Nc1ccc(I)cc1F [MIRDAMETINIB]
inactive: [1] > 30 µM | [2] > 30 µM | [3] > 30 µM | [4] > 30 µM | Ephrin type-A receptor 1 > 30 µM | Misshapen-like kinase 1 > 30 µM
